Source: PubChem BioAssay (NCI)
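Compound exposure: 48 hours, 5 concentrations, 96-well plates. Here, GI50 denotes the concentration required for 50% inhibition of growth. TGI denotes the concentration required for complete inhibition of growth.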

Columns and labels:
Assay in all cases: NCI anticancer screen, dose series, 48 h
[1] = test system: M14 melanoma
[2] = test system: MDA-MB-231 breast
[3] = test system: SNB-75 CNS
[4] = test system: TK-10 renal
[5] = test system: UACC-257 melanoma
[6] = test system: EKVX NSCLC
[7] = test system: SF-295 CNS
[8] = test system: MOLT-4 leukemia
[9] = test system: SN12C renal
[10] = test system: HCT-15 colon
[11] = test system: NCI/ADR-RES ovarian
[12] = test system: HS 578T breast
[13] = test system: OVCAR-4 ovarian
[14] = test system: SK-MEL-2 melanoma
[15] = test system: SK-MEL-5 melanoma
[16] = test system: OVCAR-8 ovarian
[17] = test system: SF-539 CNS
[18] = test system: SNB-19 CNS
[19] = test system: HOP-92 NSCLC
[20] = test system: NCI-H226 lung
[21] = test system: MALME-3M melanoma
[22] = test system: CCRF-CEM leukemia
[23] = test system: HCC-2998 colon
[24] = test system: SW-620 colon
[25] = test system: HCT-116 colon
[26] = test system: RPMI-8226 leukemia
[27] = test system: MDA-MB-435
[28] = test system: IGROV1 ovarian
[29] = test system: T-47D breast
[30] = test system: NCI-H522 lung
[31] = test system: HT29 colon
[32] = test system: SK-OV-3 ovarian
[33] = test system: NCI-H460 lung
[34] = test system: ACHN renal
[35] = test system: HL-60(TB) leukemia
[36] = test system: RXF 393 renal
[37] = test system: MCF7 breast
[38] = test system: LOX IMVI melanoma
[39] = test system: SF-268 CNS
[40] = test system: DU-145 prostate
[41] = test system: UACC-62 melanoma
[42] = test system: HOP-62 NSCLC
[43] = test system: OVCAR-5 ovarian
[44] = test system: COLO 205 colon
[45] = test system: A498 renal
[46] = test system: K-562 leukemia
[47] = test system: SK-MEL-28 melanoma
[48] = test system: A549 NSCLC
[49] = test system: BT-549 breast
[50] = test system: U251 CNS
[51] = test system: PC-3 prostate
[52] = test system: OVCAR-3 ovarian
[53] = test system: KM12 colon
[54] = test system: 786-0 renal
[55] = test system: CAKI-1 renal
[56] = test system: UO-31 renal

In the case of `N#Cc1c(-c2ccc(Cl)cc2)nc(SCc2ccccc2)nc1N1CCNCC1`, the GI50 [1] is reported as 1.65 µM, the TGI [1] is reported as 3.08 µM and the GI50 [2] is reported as 1.73 µM. For the same molecule, the TGI [2] was 3.37 µM, the GI50 [3] was 1.33 µM and the TGI [3] was 2.68 µM. It also gave a GI50 [4] of 1.51 µM, a TGI [4] of 2.89 µM and a GI50 [5] of 1.55 µM. It also gave a TGI [5] of 2.96 µM, a GI50 [6] of 1.52 µM and a TGI [6] of 2.89 µM. The GI50 [7] was 1.75 µM, the TGI [7] was 3.16 µM and the GI50 [8] was 1.6 µM. It also gave a TGI [8] of 3.69 µM, a GI50 [9] of 1.77 µM and a TGI [9] of 3.27 µM. The GI50 [10] was 1.6 µM, the TGI [10] was 3.02 µM and the GI50 [11] was 1.6 µM. It also gave a TGI [11] of 3.18 µM, a GI50 [12] of 1.89 µM and a TGI [12] of 4.2 µM. For the same molecule, the GI50 [13] was 1.64 µM, the TGI [13] was 3.08 µM and the GI50 [14] was 1.6 µM. For the same molecule, the TGI [14] was 3.02 µM, the GI50 [15] was 1.76 µM and the TGI [15] was 3.14 µM. The GI50 [16] was 1.63 µM, the TGI [16] was 3.03 µM and the GI50 [17] was 1.78 µM. It also gave a TGI [17] of 3.2 µM, a GI50 [18] of 1.61 µM and a TGI [18] of 3.08 µM. It also gave a GI50 [19] of 1.06 µM, a TGI [19] of 2.39 µM and a GI50 [20] of 1.84 µM. The TGI [20] was 3.53 µM, the GI50 [21] was 1.71 µM and the TGI [21] was 3.32 µM. It also gave a GI50 [22] of 1.97 µM, a TGI [22] of 4.51 µM and a GI50 [23] of 1.6 µM. It also gave a TGI [23] of 3.03 µM, a GI50 [24] of 1.69 µM and a TGI [24] of 3.22 µM. It also gave a GI50 [25] of 1.64 µM, a TGI [25] of 3.12 µM and a GI50 [26] of 1.9 µM. The TGI [26] was 4.49 µM, the GI50 [27] was 1.7 µM and the TGI [27] was 3.1 µM. For the same molecule, the GI50 [28] was 1.61 µM, the TGI [28] was 3.06 µM and the GI50 [29] was 1.65 µM. For the same molecule, the TGI [29] was 3.26 µM, the GI50 [30] was 1.5 µM and the TGI [30] was 2.9 µM. The GI50 [31] was 1.65 µM, the TGI [31] was 3.02 µM and the GI50 [32] was 1.87 µM. For the same molecule, the TGI [32] was 3.57 µM, the GI50 [33] was 1.72 µM and the TGI [33] was 3.19 µM. It also gave a GI50 [34] of 1.67 µM, a TGI [34] of 3.04 µM and a GI50 [35] of 1.44 µM. For the same molecule, the TGI [35] was 3.71 µM, the GI50 [36] was 1.58 µM and the TGI [36] was 3.02 µM. It also gave a GI50 [37] of 1.59 µM, a TGI [37] of 3.2 µM and a GI50 [38] of 2.05 µM. The TGI [38] was 3.55 µM, the GI50 [39] was 1.62 µM and the TGI [39] was 3.2 µM. For the same molecule, the GI50 [40] was 1.7 µM, the TGI [40] was 3.07 µM and the GI50 [41] was 1.77 µM. It also gave a TGI [41] of 3.21 µM, a GI50 [42] of 1.75 µM and a TGI [42] of 3.4 µM. The GI50 [43] was 1.64 µM, the TGI [43] was 3.02 µM and the GI50 [44] was 1.65 µM. It also gave a TGI [44] of 3.04 µM, a GI50 [45] of 1.69 µM and a TGI [45] of 3.37 µM. The GI50 [46] was 1.77 µM, the TGI [46] was 5.81 µM and the GI50 [47] was 1.78 µM. For the same molecule, the TGI [47] was 3.19 µM, the GI50 [48] was 1.55 µM and the TGI [48] was 2.99 µM. For the same molecule, the GI50 [49] was 1.69 µM, the TGI [49] was 3.14 µM and the GI50 [50] was 1.58 µM. For the same molecule, the TGI [50] was 2.94 µM, the GI50 [51] was 1.61 µM and the TGI [51] was 3.08 µM. The GI50 [52] was 1.73 µM, the TGI [52] was 3.18 µM and the GI50 [53] was 1.77 µM. It also gave a TGI [53] of 3.29 µM, a GI50 [54] of 1.42 µM and a TGI [54] of 2.96 µM. For the same molecule, the GI50 [55] was 1.48 µM, the TGI [55] was 2.81 µM and the GI50 [56] was 1.35 µM. The TGI [56] was 2.64 µM.
